25 compounds from ChEMBL document CHEMBL1141724, “Design and synthesis of 2-amino-pyrazolopyridines as Polo-like kinase 1 inhibitors” (Bioorg Med Chem Lett, 2008) can be followed below.

The source made the active and inactive calls. No cut-off for these calls is given here.

The target in assay [1] is Serine/threonine-protein kinase PLK1 (Homo sapiens, UniProt P53350).
The test system of assay [2] is HCT-116. In words: cells. Particulars: Homo sapiens.
Description: Effect on cell cycle progression in human HCT116 cells assessed as mitotic arrest measured by doubling DNA content by High content screening
The test system of assay [3] is HCT-116. The assay is described as follows: cells. Particulars: Homo sapiens. This is another data set of the same source.
Description: Effect on cell cycle progression in human HCT116 cells assessed as mitotic arrest measured by doubling DNA content by fluorescence microscopy
The next assay has as its system HeLa. The assay is described as follows: Decrease in B23 nucleophosmin phosphorylation in human HeLa cells at 5 uM after 16 hrs by Western blot analysis. The format is functional, cell-based.
The subject of assay [4] is HCT-116. The assay is described as follows: cells. Conditions: Homo sapiens. This is another data set of the same source.
Description: Effect on cell cycle progression in human HCT116 cells assessed as increase in phospho-histone H3 by fluorescence microscopy
Assay [5] in a line: Selectivity for Plk1 over Plk3.
A short description of assay [6]: Selectivity for Plk1 over Plk2.
A short description of assay [7]: Selectivity for Plk1 over Aurora A.

Sequence of Serine/threonine-protein kinase PLK1 (P53350 whole entry): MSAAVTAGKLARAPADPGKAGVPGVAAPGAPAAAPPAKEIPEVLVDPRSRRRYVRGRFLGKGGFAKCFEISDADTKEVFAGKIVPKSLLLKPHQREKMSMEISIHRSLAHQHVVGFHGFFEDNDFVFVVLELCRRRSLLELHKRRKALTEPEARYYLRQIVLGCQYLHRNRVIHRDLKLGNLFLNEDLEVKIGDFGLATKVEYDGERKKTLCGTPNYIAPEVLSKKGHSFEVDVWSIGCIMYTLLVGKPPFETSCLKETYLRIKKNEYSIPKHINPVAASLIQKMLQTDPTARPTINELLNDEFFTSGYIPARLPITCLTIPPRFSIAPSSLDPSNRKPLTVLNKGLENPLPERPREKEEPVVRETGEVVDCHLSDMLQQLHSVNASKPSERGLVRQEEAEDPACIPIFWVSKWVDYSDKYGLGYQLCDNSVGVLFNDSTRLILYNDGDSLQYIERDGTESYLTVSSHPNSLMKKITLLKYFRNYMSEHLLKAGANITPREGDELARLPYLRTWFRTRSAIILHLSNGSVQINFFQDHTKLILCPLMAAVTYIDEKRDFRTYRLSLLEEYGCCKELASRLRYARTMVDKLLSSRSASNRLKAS

As to `Cc1ccccc1-n1nc(C)c2cnc(N[C@@H](C)c3ccccc3)cc21`, the midpoint of inhibition in assay [1], the IC50, lay at 7690 nM.

Take `Cc1nn(-c2cccc(F)c2)c2cc(N[C@@H](C)c3ccccc3)ncc12`: in assay [1], 464 nM corresponded to half-maximal inhibition (IC50).

For `Cc1nn(-c2cccc(S(C)(=O)=O)c2)c2cc(N[C@@H](C)c3ccccc3)ncc12`, it took 225 nM to reach half-maximal inhibition in assay [1] (IC50).

Regarding `Cc1nn(-c2cccc(Cl)c2)c2cc(N[C@@H](C)c3ccccc3)ncc12`, in the assay with HCT-116 [2], the EC50 (usually the concentration needed to bring the measured effect to its halfway point) is above 20000 nM.

As to `Cc1nn(-c2cc(Cl)cc(CCC(N)=O)c2)c2cc(N[C@@H](C)c3ccccc3)ncc12`, the EC50 in the assay with HCT-116 [2] was 9350 nM. Besides, in assay [1], the half-maximal inhibitory concentration (IC50) (in general, the point on the concentration scale where inhibition reaches its midpoint) turned out to be 32 nM.

In the case of `Cc1ccc(-n2nc(C)c3cnc(N[C@@H](C)c4ccccc4)cc32)cc1`, in assay [1], it took 4530 nM to reach half-maximal inhibition (IC50).

As to `C[C@H](Nc1cc2c(cn1)cnn2-c1ccccc1C(N)=O)c1ccccc1`, the EC50 in the assay on HCT-116 [2] turned out to be 2430 nM; in the assay with HCT-116 [3], 1900 nM; in the assay with HCT-116 [4], 1700 nM. Moreover, the result with HeLa was Active. For the same compound, it took 50 nM to reach half-maximal inhibition in assay [1] (IC50). Besides, the Selectivity ratio in assay [5] was 50; in assay [6] it was 50; in assay [7] it was 150.

As for `CCOC(=O)C1=C(C)NC(=S)NC1c1cccc(O)c1` (centres undefined) [MONASTROL], the EC50 in the assay on HCT-116 [3] came to 1200 nM; in the assay on HCT-116 [4], 1500 nM.

Consider `Cc1cc(C)cc(-n2nc(C)c3cnc(N[C@@H](C)c4ccccc4)cc32)c1`, for which, in assay [1], the IC50 was 149 nM.

`Cc1nn(-c2cc(Cl)cc(Cl)c2)c2cc(N[C@@H](C)c3ccccc3)ncc12` registered an IC50 in assay [1] of 641 nM.

In assay [1], `Cc1nn(-c2ccc(F)cc2)c2cc(N[C@@H](C)c3ccccc3)ncc12` registered an IC50 of 3240 nM.

In turn, `Cc1nn(-c2cccc(N(C)C)c2)c2cc(N[C@@H](C)c3ccccc3)ncc12` gave an IC50 in assay [1] of 977 nM.

In the case of `Cc1nn(-c2cc(Cl)cc(CCCN)c2)c2cc(N[C@@H](C)c3ccccc3)ncc12`, the response with HCT-116 [2] was half-maximal at 5800 nM (EC50). In assay [1], half-maximal inhibition (IC50) required 59 nM.

In the case of `COc1ccc(-n2nc(C)c3cnc(N[C@@H](C)c4ccccc4)cc32)cc1`, the IC50 in assay [1] was determined as 703 nM.

`CC(=O)Nc1ccccc1-c1cc(Cl)cc(-n2nc(C)c3cnc(N[C@@H](C)c4ccccc4)cc32)c1` returned an EC50 in the assay with HCT-116 [2] above 20000 nM. Further, the IC50 in assay [1] worked out at 207 nM.

On to `Cc1nn(-c2cccc(C#N)c2)c2cc(N[C@@H](C)c3ccccc3)ncc12`, for which 412 nM corresponded to half-maximal inhibition in assay [1] (IC50).

The compound `Cc1nn(-c2cc(Cl)cc(CCC(=O)NCCO)c2)c2cc(N[C@@H](C)c3ccccc3)ncc12` had an EC50 in the assay with HCT-116 [2] of 9200 nM. The compound also showed a half-maximal inhibitory concentration (IC50) in assay [1] of 48 nM.

In turn, `Cc1nn(-c2ccccc2F)c2cc(N[C@@H](C)c3ccccc3)ncc12` showed an IC50 in assay [1] of 4520 nM.

With `COc1cccc(-n2nc(C)c3cnc(N[C@@H](C)c4ccccc4)cc32)c1`, the IC50 in assay [1] came to 5930 nM.

Regarding `COc1ccccc1-n1nc(C)c2cnc(N[C@@H](C)c3ccccc3)cc21`, in assay [1], the IC50 was determined as 14500 nM.

Take `Cc1nn(-c2cccc(C(C)C)c2)c2cc(N[C@@H](C)c3ccccc3)ncc12`: in assay [1], inhibition was half-maximal at 1480 nM (IC50).

Take `Cc1nn(-c2cc(Cl)cc(CCC(=O)O)c2)c2cc(N[C@@H](C)c3ccccc3)ncc12`: the EC50 in the assay with HCT-116 [2] is above 20000 nM. In assay [1], this compound returned an IC50 of 21 nM.

In assay [1], `Cc1nn(-c2cc(Cl)cc(Br)c2)c2cc(N[C@@H](C)c3ccccc3)ncc12` returned an IC50 of 274 nM.

`Cc1cccc(-n2nc(C)c3cnc(N[C@@H](C)c4ccccc4)cc32)c1`: 474 nM corresponded to half-maximal inhibition in assay [1] (IC50).

In the assay on HCT-116 [2], `Cc1nn(-c2ccccc2C(N)=O)c2cc(N[C@@H](C)c3ccccc3)ncc12` had an EC50 of 3640 nM. This compound also showed an IC50 in assay [1] of 42 nM.
